# Measured values: US20040127403A1, “Methods for treating and preventing Gram-positive bacteremias” (priority 2002, published 2004)
# Legend:
# Assay in all cases: MIC, NCCLS broth microdilution
# Type in all cases: cell-based
# S. aureus ATCC35556 MRSA = settings: Staphylococcus aureus
# Protocol: (§1) The efficacy of ramoplanin was tested against recently isolated VRE that are resistant to linezolid and quinupristin/dalfopristin. The culture media containing ramoplanin was supplemented with 0.02% bovine serum albumin (BSA) to prevent ramoplanin binding to the plastic. MIC values were determined in both cation-adjusted Mueller-Hinton broth (CAMHB) and trypticase soy broth (TSB) by the National Committee for Clinical Laboratory Standards (NCCLS) broth microdilution method. Macromolecular biosynthesis experiments were done by following the incorporation of carbon-14-labeled N-acetylglucosamine, acetic acid, amino acids, uridine, and thymidine into peptidoglycan, fatty acid, protein, RNA and DNA, respectively.
# E. faecium A6345 Line-R = settings: for MIC: Enterococcus faecium, A6345LINER, E. faecium A6345 Line-R
# Protocol: as §1
# S. aureus ATCC27659 MSSA = settings: Staphylococcus aureus
# Protocol: as §1
# E. faecium A2735 Syn-R = settings: Enterococcus faecium, A2735SYNR
# Protocol: as §1
# E. faecalis A7789 Line-R = settings: Enterococcus faecalis, A7789LINER
# Protocol: as §1
# S. aureus ATCC27660 MSSA = settings: Staphylococcus aureus
# Protocol: as §1
# E. faecium UA210 = settings: Enterococcus faecium, UA210, E. faecium UA210
# Protocol: as §1
# E. gallinarum UA604 = settings: Enterococcus gallinarum, GALLINARUM
# Protocol: as §1
# E. faecium A6350 Line-R = settings: Enterococcus faecium, A6350LINER
# Protocol: as §1
# S. aureus ATCC12600 MRSA = settings: Staphylococcus aureus
# Protocol: as §1
# E. faecium A5959 Line-R = settings: Enterococcus faecium, A5959LINER
# Protocol: as §1
# E. faecium 1836 = settings: Enterococcus faecium, 1836, E. faecium 1836
# Protocol: as §1
# E. faecium ATCC700221 = settings: Enterococcus faecium, ATCC700221, E. faecium ATCC700221
# Protocol: as §1
# S. aureus ATCC43300 MRSA = tested on: S. aureus ATCC43300 MRSA
# Protocol: as §1
# S. epidermidis ATCC12228 = settings: Staphylococcus epidermidis, ATCC12228, S. epidermidis ATCC12228
# Protocol: as §1
# E. faecalis ATCC29212 = settings: Enterococcus faecalis, ATCC29212, E. faecalis ATCC29212
# Protocol: as §1
# S. epidermidis ATCC14990 = settings: Staphylococcus epidermidis, ATCC14990, S. epidermidis ATCC14990
# Protocol: as §1
# S. aureus ATCC19636 MSSA = settings: Staphylococcus aureus
# Protocol: as §1
# E. faecium A-5960 Line-R = settings: Enterococcus faecium, A5960LINER
# Protocol: as §1
# E. faecium A4192 Syn-R = settings: Enterococcus faecium, A4192SYNR
# Protocol: as §1
# S. epidermidis ATCC35983 = settings: Staphylococcus epidermidis, ATCC35983, S. epidermidis ATCC35983
# Protocol: as §1
# E. faecium A6349 Line-R = settings: Enterococcus faecium, A6349LINER
# Protocol: as §1
# E. faecium A6343 Line-R = settings: Enterococcus faecium, A6343LINER
# Protocol: as §1
smiles,measurement,setting,value
CN[C@H](CC(C)C)C(=O)N[C@H]1C(=O)N[C@@H](CC(N)=O)C(=O)N[C@H]2C(=O)N[C@H]3C(=O)N[C@H](C(=O)N[C@H](C(=O)O)c4cc(O)cc(O)c4-c4cc3ccc4O)[C@H](O)c3ccc(c(Cl)c3)Oc3cc2cc(c3O[C@@H]2O[C@H](CO)[C@@H](O)[C@H](O)[C@H]2O[C@H]2C[C@](C)(N)[C@H](O)[C@H](C)O2)Oc2ccc(cc2Cl)[C@H]1O [Vancomycin],MIC,S. aureus ATCC35556 MRSA; CAMHB,1 µg/mL
same,MIC,S. aureus ATCC35556 MRSA; TSB,> 16 µg/mL
same,MIC,"S. aureus ATCC35556 MRSA; Table 6, 1st",1 µg/mL
same,MIC,"S. aureus ATCC35556 MRSA; Table 6, 2nd",1 µg/mL
same,reference MIC for strains used for killing curve,"E. faecium A6345 Line-R; E. faecium A6345 Line-R. as printed, second row of Table 3",>64 µg/mL
same,reference MIC for strains used for killing curve,"E. faecium A6345 Line-R; E. faecium A6345 Line-R., first row of Table 3",>64 µg/mL
same,MIC,E. faecium A6345 Line-R; CAMHB,> 16 µg/mL
same,MIC,E. faecium A6345 Line-R; TSB,> 16 µg/mL
same,MIC,"E. faecium A6345 Line-R; Table 6, 1st",> 16 µg/mL
same,MIC,"E. faecium A6345 Line-R; Table 6, 2nd",> 64 µg/mL
same,MIC,S. aureus ATCC27659 MSSA; CAMHB,1 µg/mL
same,MIC,S. aureus ATCC27659 MSSA; TSB,> 16 µg/mL
same,MIC,"S. aureus ATCC27659 MSSA; Table 6, 1st",1 µg/mL
same,MIC,"S. aureus ATCC27659 MSSA; Table 6, 2nd",1 µg/mL
same,MIC,E. faecium A2735 Syn-R; CAMHB,> 16 µg/mL
same,MIC,E. faecium A2735 Syn-R; TSB,> 16 µg/mL
same,MIC,"E. faecium A2735 Syn-R; Table 6, 1st",> 16 µg/mL
same,MIC,"E. faecium A2735 Syn-R; Table 6, 2nd",> 64 µg/mL
same,MIC,E. faecalis A7789 Line-R; CAMHB,2 µg/mL
same,MIC,E. faecalis A7789 Line-R; TSB,2 µg/mL
same,MIC,"E. faecalis A7789 Line-R; Table 6, 1st",1 µg/mL
same,MIC,"E. faecalis A7789 Line-R; Table 6, 2nd",1 µg/mL
same,MIC,S. aureus ATCC27660 MSSA; CAMHB,2 µg/mL
same,MIC,S. aureus ATCC27660 MSSA; TSB,2 µg/mL
same,MIC,"S. aureus ATCC27660 MSSA; Table 6, 1st",1 µg/mL
same,MIC,"S. aureus ATCC27660 MSSA; Table 6, 2nd",1 µg/mL
same,MIC,E. faecium UA210; CAMHB,> 16 µg/mL
same,MIC,E. faecium UA210; TSB,> 16 µg/mL
same,MIC,"E. faecium UA210; Table 6, 1st",> 16 µg/mL
same,MIC,"E. faecium UA210; Table 6, 2nd",> 64 µg/mL
same,MIC,E. gallinarum UA604; CAMHB,1 µg/mL
same,MIC,E. gallinarum UA604; TSB,2 µg/mL
same,MIC,"E. gallinarum UA604; Table 6, 1st",0.5 µg/mL
same,MIC,"E. gallinarum UA604; Table 6, 2nd",0.5 µg/mL
same,MIC,E. faecium A6350 Line-R; CAMHB,2 µg/mL
same,MIC,E. faecium A6350 Line-R; TSB,2 µg/mL
same,MIC,"E. faecium A6350 Line-R; Table 6, 1st",1 µg/mL
same,MIC,"E. faecium A6350 Line-R; Table 6, 2nd",1 µg/mL
same,MIC,S. aureus ATCC12600 MRSA; CAMHB,2 µg/mL
same,MIC,S. aureus ATCC12600 MRSA; TSB,2 µg/mL
same,MIC,"S. aureus ATCC12600 MRSA; Table 6, 1st",1 µg/mL
same,MIC,"S. aureus ATCC12600 MRSA; Table 6, 2nd",1 µg/mL
same,MIC,E. faecium A5959 Line-R; CAMHB,> 16 µg/mL
same,MIC,E. faecium A5959 Line-R; TSB,> 16 µg/mL
same,MIC,"E. faecium A5959 Line-R; Table 6, 1st",> 16 µg/mL
same,MIC,"E. faecium A5959 Line-R; Table 6, 2nd",> 64 µg/mL
same,MIC,E. faecium 1836; CAMHB,> 16 µg/mL
same,MIC,E. faecium 1836; TSB,> 16 µg/mL
same,MIC,"E. faecium 1836; Table 6, 1st",> 16 µg/mL
same,MIC,"E. faecium 1836; Table 6, 2nd",> 64 µg/mL
same,MIC,E. faecium ATCC700221; CAMHB,> 16 µg/mL
same,MIC,E. faecium ATCC700221; TSB,> 16 µg/mL
same,MIC,"E. faecium ATCC700221; Table 6, 1st",> 16 µg/mL
same,MIC,"E. faecium ATCC700221; Table 6, 2nd",> 64 µg/mL
same,MIC,"S. aureus ATCC43300 MRSA; S. aureus ATCC43300 MRSA/VISA, Table 6, 2nd",1 µg/mL
same,MIC,"S. aureus ATCC43300 MRSA; S. aureus ATCC43300 MRSA, TSB","2, 2 μg/ml"
same,MIC,S. aureus ATCC43300 MRSA; Staphylococcus aureus,2 µg/mL
same,MIC,"S. aureus ATCC43300 MRSA; Staphylococcus aureus, ATCC 43300 / MRSA / VISA",1 µg/mL
same,MIC,S. epidermidis ATCC12228; CAMHB,4 µg/mL
same,MIC,S. epidermidis ATCC12228; TSB,4 µg/mL
same,MIC,"S. epidermidis ATCC12228; Table 6, 1st",2 µg/mL
same,MIC,"S. epidermidis ATCC12228; Table 6, 2nd",2 µg/mL
same,MIC,E. faecalis ATCC29212; CAMHB,4 µg/mL
same,MIC,"E. faecalis ATCC29212; Table 6, 1st",2 µg/mL
same,MIC,"E. faecalis ATCC29212; Table 6, 2nd",2 µg/mL
same,MIC,S. epidermidis ATCC14990; CAMHB,4 µg/mL
same,MIC,S. epidermidis ATCC14990; TSB,4 µg/mL
same,MIC,"S. epidermidis ATCC14990; Table 6, 1st",2 µg/mL
same,MIC,"S. epidermidis ATCC14990; Table 6, 2nd",2 µg/mL
same,MIC,S. aureus ATCC19636 MSSA; CAMHB,2 µg/mL
same,MIC,S. aureus ATCC19636 MSSA; TSB,> 16 µg/mL
same,MIC,"S. aureus ATCC19636 MSSA; Table 6, 1st",1 µg/mL
same,MIC,"S. aureus ATCC19636 MSSA; Table 6, 2nd",1 µg/mL
same,MIC,E. faecium A-5960 Line-R; CAMHB,> 16 µg/mL
same,MIC,E. faecium A-5960 Line-R; TSB,> 16 µg/mL
same,MIC,"E. faecium A-5960 Line-R; Table 6, 1st",> 16 µg/mL
same,MIC,"E. faecium A-5960 Line-R; Table 6, 2nd",> 64 µg/mL
same,MIC,E. faecium A4192 Syn-R; CAMHB,> 16 µg/mL
same,MIC,E. faecium A4192 Syn-R; TSB,> 16 µg/mL
same,MIC,"E. faecium A4192 Syn-R; Table 6, 1st",> 16 µg/mL
same,MIC,"E. faecium A4192 Syn-R; Table 6, 2nd",> 64 µg/mL
same,MIC,S. epidermidis ATCC35983; CAMHB,4 µg/mL
same,MIC,S. epidermidis ATCC35983; TSB,4 µg/mL
same,MIC,"S. epidermidis ATCC35983; Table 6, 1st",2 µg/mL
same,MIC,"S. epidermidis ATCC35983; Table 6, 2nd",2 µg/mL
same,MIC,"E. faecium A6349 Line-R; Table 6, 1st",> 16 µg/mL
same,MIC,"E. faecium A6349 Line-R; Table 6, 2nd",> 64 µg/mL
same,MIC,E. faecium A6343 Line-R; CAMHB,2 µg/mL
same,MIC,E. faecium A6343 Line-R; TSB,2 µg/mL
same,MIC,"E. faecium A6343 Line-R; Table 6, 1st",1 µg/mL
same,MIC,"E. faecium A6343 Line-R; Table 6, 2nd",1 µg/mL
